In patent publication US20060235063A1, “Method of protecting a soybean plant with flutriafol” (priority 2005, published 2006):

Assays:
soybean = assay: Example 2: field trial, count of emerged seedlings (crop safety); details: in vivo
From the text: (§1) Seed was drilled at 60 kg per hectare in four replicates per treatment. Each replicate consisted of a 6 m row of 100 seeds. With the seed treatments, fertilizer was first applied up to 2 cm below seed depth and then the rows opened to a depth of 3 cm, the seeds sown and the rows closed with soil. In each treatment there were five rows of 6 m length with 45 cm between rows. With the in-furrow treatments, the row was opened using a hoe, and then the appropriate weight amount of Impact 1.5 GR was applied in the row followed directly afterwards with seed placed over the granules. Soil was then placed over the seed to close the row.
(§2) Twenty two days after planting, the number of plants emerged was evaluated by counting the emerged seedlings in each of the central three rows of each plot. Disease assessment was done 61 days after emergence by selecting 20 leaves per plot from the whole plant at random, and estimating the percentage rust coverage (% disease severity).

soybean rust = assay: Example 2: field trial at Formoso do Araguaia, Brazil, percentage rust coverage on leaves; format: in vivo
From the text: A trial in Brazil at Formoso do Araguaia examined the rust control from nine rates of flutriafol applied as a 1.5% granule in a rate range of 4 to 40 kg formulated product per hectare (60 to 600 g flutriafol active ingredient per hectare), three rates of Vincit 2.5% powder seed dressing at […] formulated product per 100 kg seed (2.25 to 3.75 g flutriafol active ingredient per 100 kg seed) and four rates of Vincit 5% SC suspension concentrate seed dressing at 50 to 150 g formulation per 100 kg seed (1.5 to 4.5 g flutriafol active ingredient per 100 kg seed).
These treatments were compared with an untreated and a commercial standard treatment of Derosal Plus, which is a mixture of carbendazim plus thiram in a suspension concentrate formulation applied to seed at a rate of 200 ml formulation per 100 kg seed (30 g thiram plus 70 g carbendazim) per 100 kg seed. Both the untreated sample and the Derosal Plus treatment are provided below as comparative data.
as §1, §2

[1] = test system: Asian Rust (Phakopsora pachyrhizi) in Soy Beans; assay: Example 1: climate chamber test, flutriafol seed or soil dressing, plants inoculated with rust spores at third trifoliate; format: in vivo
Experimental: (§3) Soy bean seed was treated with a range of flutriafol rates, as presented in Table 1 below (right-hand side). Additionally, flutriafol was applied directly to the soil, at the rates described below (left-hand side). Three replicates were done per treatment. At the third trifoliate stage, seedlings where inoculated with rust spores on the ad- and ab-axial surfaces of the third trifoliate.
Following treatments and inoculations, the inoculated plants were transferred to a climate chamber, watered as necessary and evaluated for the incidence of Asian Rust. The average of the recorded incidence of disease (%) on the third trifoliate is presented below. An untreated control is also provided as comparative data.

Asian Rust in Soy Beans = assay: Example 3: greenhouse experiment, flutriafol seed or soil dressing, plants inoculated with rust spores at third trifoliate; format: in vivo, Phakopsora pachyrhizi; parameters: average recorded incidence of disease on the third trifoliate: unit not given here
Experimental: as §3, with “Soya” for “Soy bean”, “3” for “1”, “where made” for “were done”
Following treatments and inoculations, the inoculated plants where transferred to a climate chamber, watered as necessary and evaluated for the incidence of Asian Rust. The average of the recorded incidence of disease on the third trifoliate is presented below.

OC(Cn1cncn1)(c1ccc(F)cc1)c1ccccc1F (racemic) [flutriafol, (RS)-2,4′-difluoro-α-(1H-1,2,4-triazol-1-ylmethyl)benzhydryl alcohol]
effect on plant numbers (in words) (soybean): unaffected | phytotoxicity (in words) (soybean): phytotoxic | rust control (in words) (soybean rust; all flutriafol seed treatment rates): reduction in rust | rust control (in words) (soybean rust; in-furrow, lowest rate of 60 g flutriafol/hectare, 61 days after plant emergence): controlled the rust | rust control (in words) (soybean rust; in-furrow, rates above 150 g flutriafol/hectare, 61 days after emergence): complete control | disease control (in words) ([1]; in-furrow treatments using 30 grams or more flutriafol per hectare): Significant improvements | average recorded incidence of disease (%) on the third trifoliate ([1]; seed treatment 3 ppm): 47% | average recorded incidence of disease (%) on the third trifoliate ([1]; seed treatment 10 ppm): 28% | average recorded incidence of disease (%) on the third trifoliate ([1]; seed treatment 30 ppm): 8% | average recorded incidence of disease (%) on the third trifoliate ([1]; seed treatment 100 ppm): 1% | average recorded incidence of disease (%) on the third trifoliate ([1]; seed treatment 300 ppm): 0% | average recorded incidence of disease (%) on the third trifoliate ([1]; seed treatment 1000 ppm): 0% | disease control (in words) ([1]; seed treatments using 10 ppm flutriafol or more): Significant improvements | average recorded incidence of disease (%) on the third trifoliate ([1]; soil application 3 g ai/Ha): 73% | average recorded incidence of disease (%) on the third trifoliate ([1]; soil application 10 g ai/Ha): 63% | average recorded incidence of disease (%) on the third trifoliate ([1]; soil application 30 g ai/Ha): 53% | average recorded incidence of disease (%) on the third trifoliate ([1]; soil application 100 g ai/Ha): 12% | average recorded incidence of disease (%) on the third trifoliate ([1]; soil application 300 g ai/Ha): 2% | average recorded incidence of disease (%) on the third trifoliate ([1]; soil application 1000 g ai/Ha): 1% | disease control (in words) (Asian Rust in Soy Beans; in-furrow treatments using 30 grams flutriafol per hectare or more): Complete disease control | disease control (in words) (Asian Rust in Soy Beans; in-furrow treatments using just 3 grams flutriafol per hectare): Significant improvements in disease control | average recorded incidence of disease on the third trifoliate (Asian Rust in Soy Beans; seed treatment 3 ppm, 21DPI): 31 | average recorded incidence of disease on the third trifoliate (Asian Rust in Soy Beans; seed treatment 10 ppm, 21DPI): 35 | average recorded incidence of disease on the third trifoliate (Asian Rust in Soy Beans; seed treatment 30 ppm, 21DPI): 40 | average recorded incidence of disease on the third trifoliate (Asian Rust in Soy Beans; seed treatment 100 ppm, 21DPI): 0 | average recorded incidence of disease on the third trifoliate (Asian Rust in Soy Beans; seed treatment 300 ppm, 21DPI): 0 | average recorded incidence of disease on the third trifoliate (Asian Rust in Soy Beans; seed treatment 1000 ppm, 21DPI): 0 | disease control (in words) (Asian Rust in Soy Beans; seed treatments using 100 ppm flutriafol or more): Complete disease control | average recorded incidence of disease on the third trifoliate (Asian Rust in Soy Beans; soil treatment 3 g ai/Ha, 28DPI): 18 | average recorded incidence of disease on the third trifoliate (Asian Rust in Soy Beans; soil treatment 10 g ai/Ha, 28DPI): 16 | average recorded incidence of disease on the third trifoliate (Asian Rust in Soy Beans; soil treatment 30 g ai/Ha, 28DPI): 0 | average recorded incidence of disease on the third trifoliate (Asian Rust in Soy Beans; soil treatment 100 g ai/Ha, 28DPI): 0 | average recorded incidence of disease on the third trifoliate (Asian Rust in Soy Beans; soil treatment 300 g ai/Ha, 28DPI): 0 | average recorded incidence of disease on the third trifoliate (Asian Rust in Soy Beans; soil treatment 1000 g ai/Ha, 28DPI): 0
